Legend:
[1] = molecular target: CYP2J2 (Homo sapiens, UniProt P51589); assay: in vitro CYP metabolism; assay type: in vitro ADME
[2] = pre-clinical toxicity studies; assay type: in vivo
[3] = safety pharmacology, ECG and heart rate in dogs; assay type: in vivo
[4] = test system: Xenograft A549; assay: Example 2: Xenograft A549 mice, tumor volume; assay type: in vivo
Procedure: Protocol: Five groups of Xenograft A549 mice were treated and tumor volume tracked for twenty-two days. Group 01 was administered 0.9% Saline, 0 mg/kg cisplatin, Corn Oil, and 0 mg/kg 2-[3-[(3R)-3-[[2-chloro-3-(trifluoromethyl)phenyl]methyl-(2,2-diphenylethyl)amino]butoxy]phenyl]acetic acid; Group 02 was administered 2 mg/kg Cisplatin, Corn Oil, and 0 mg/kg 2-[3-[(3R)-3-[[2-chloro-3-(trifluoromethyl)phenyl]methyl-(2,2-diphenylethyl)amino]butoxy]phenyl]acetic acid; Group 03 was administered 0.9% Saline, 0 mg/kg cisplatin, and 50 mg/kg 2-[3-[(3R)-3-[[2-chloro-3-(trifluoromethyl)phenyl]methyl-(2,2-diphenylethyl)amino]butoxy]phenyl]acetic acid; Group 04 was administered 2 mg/kg cisplatin and 50 mg/kg 2-[3-[(3R)-3-[[2-chloro-3-(trifluoromethyl)phenyl]methyl-(2,2-diphenylethyl)amino]butoxy]phenyl]acetic acid twice per day daily for the entire treatment period; and Group 05 was administered 2 mg/kg cisplatin and 50 mg/kg 2-[3-[(3R)-3-[[2-chloro-3-(trifluoromethyl)phenyl]methyl-(2,2-diphenylethyl)amino]butoxy]phenyl]acetic acid twice per day for five continuous days followed by two days without for the entire treatment period.

[5] = test system: melanoma, glioblastoma, TNBC, ovarian cancer, and lung cancer; assay: syngeneic and human xenograft mouse tumor models, primary tumor growth; assay type: in vivo
[6] = test system: endothelial cells; assay: endothelial recruitment in vitro; assay type: cell-based
[7] = molecular target: 2C19 (Homo sapiens, UniProt P33261); assay: in vitro CYP450 inhibition; assay type: in vitro ADME
[8] = molecular target: 2D6 (Homo sapiens, UniProt P10635); assay: in vitro CYP450 inhibition; assay type: in vitro ADME
Sequence of 2D6 (P10635 whole entry): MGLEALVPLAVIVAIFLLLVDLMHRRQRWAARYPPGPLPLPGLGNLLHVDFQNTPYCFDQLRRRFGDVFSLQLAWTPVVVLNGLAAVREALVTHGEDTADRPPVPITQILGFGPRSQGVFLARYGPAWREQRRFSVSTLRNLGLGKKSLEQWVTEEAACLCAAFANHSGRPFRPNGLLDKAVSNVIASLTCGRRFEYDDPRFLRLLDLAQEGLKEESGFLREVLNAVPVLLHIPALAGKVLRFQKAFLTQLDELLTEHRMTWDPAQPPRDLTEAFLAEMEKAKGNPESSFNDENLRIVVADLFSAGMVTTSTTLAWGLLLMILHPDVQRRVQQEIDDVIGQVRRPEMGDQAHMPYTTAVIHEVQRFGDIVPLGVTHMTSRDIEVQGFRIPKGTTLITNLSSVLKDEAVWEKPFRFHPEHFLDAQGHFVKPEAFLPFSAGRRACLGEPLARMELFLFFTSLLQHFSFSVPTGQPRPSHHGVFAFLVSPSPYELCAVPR

[9] = molecular target: OAT3 (Homo sapiens, UniProt Q8TCC7); assay: transporter inhibition in vitro; assay type: in vitro ADME
[10] = oral PK study in male Beagle dogs; assay type: in vivo; details: dog, plasma
[11] = molecular target: OAT1 (Homo sapiens, UniProt Q4U2R8); assay: transporter inhibition in vitro; assay type: in vitro ADME
[12] = molecular target: 2A6 (Homo sapiens, UniProt P11509); assay: in vitro CYP450 inhibition; assay type: in vitro ADME
Sequence of 2A6 (P11509 whole entry): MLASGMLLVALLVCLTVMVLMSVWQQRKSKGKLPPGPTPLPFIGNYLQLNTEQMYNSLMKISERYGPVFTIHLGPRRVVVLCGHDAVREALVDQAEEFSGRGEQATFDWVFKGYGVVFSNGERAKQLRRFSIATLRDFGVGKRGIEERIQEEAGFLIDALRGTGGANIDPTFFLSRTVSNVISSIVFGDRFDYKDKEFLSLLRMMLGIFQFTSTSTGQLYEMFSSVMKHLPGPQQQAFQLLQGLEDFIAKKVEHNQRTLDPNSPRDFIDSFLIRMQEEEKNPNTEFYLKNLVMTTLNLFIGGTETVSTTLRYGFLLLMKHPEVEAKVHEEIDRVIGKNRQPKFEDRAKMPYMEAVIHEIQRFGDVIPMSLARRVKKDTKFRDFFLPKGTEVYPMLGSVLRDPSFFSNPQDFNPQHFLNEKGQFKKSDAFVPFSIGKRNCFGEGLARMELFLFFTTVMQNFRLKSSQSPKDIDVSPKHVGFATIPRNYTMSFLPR

[13] = test system: TNBC metastasis; assay: mouse model of TNBC metastasis; details: in vivo
[14] = oral PK study in Sprague-Dawley rats; assay type: in vivo
[15] = oral PK study in Cynomolgus monkeys; assay type: in vivo; details: cynomolgus monkey, plasma
[16] = test system: mouse melanoma; assay: syngeneic mouse melanoma model; assay type: in vivo
[17] = molecular target: OCT2 (Homo sapiens, UniProt O15244); assay: transporter inhibition in vitro; assay type: in vitro ADME
Sequence of OCT2 (O15244 whole entry): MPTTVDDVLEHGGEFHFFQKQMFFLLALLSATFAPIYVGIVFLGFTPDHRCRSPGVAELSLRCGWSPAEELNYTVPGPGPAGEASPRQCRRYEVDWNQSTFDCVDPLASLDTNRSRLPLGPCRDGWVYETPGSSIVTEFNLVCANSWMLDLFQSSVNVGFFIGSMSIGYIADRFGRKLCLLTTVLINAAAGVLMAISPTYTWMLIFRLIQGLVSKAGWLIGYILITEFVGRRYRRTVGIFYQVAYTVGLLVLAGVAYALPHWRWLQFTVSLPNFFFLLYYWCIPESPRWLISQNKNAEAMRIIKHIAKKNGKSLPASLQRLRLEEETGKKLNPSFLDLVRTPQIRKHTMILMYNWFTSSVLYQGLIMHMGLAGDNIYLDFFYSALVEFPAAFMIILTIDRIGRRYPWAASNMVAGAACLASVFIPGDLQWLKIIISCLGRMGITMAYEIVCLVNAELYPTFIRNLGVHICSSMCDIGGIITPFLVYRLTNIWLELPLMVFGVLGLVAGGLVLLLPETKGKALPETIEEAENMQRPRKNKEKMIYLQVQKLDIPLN

[18] = oral PK study in CD-1 mice; assay type: in vivo
[19] = molecular target: P-glucoprotein (P-gp) (Homo sapiens, UniProt P08183); assay: efflux transporter inhibition in vitro; assay type: in vitro ADME
Sequence of P-glucoprotein (P-gp) (P08183 whole entry): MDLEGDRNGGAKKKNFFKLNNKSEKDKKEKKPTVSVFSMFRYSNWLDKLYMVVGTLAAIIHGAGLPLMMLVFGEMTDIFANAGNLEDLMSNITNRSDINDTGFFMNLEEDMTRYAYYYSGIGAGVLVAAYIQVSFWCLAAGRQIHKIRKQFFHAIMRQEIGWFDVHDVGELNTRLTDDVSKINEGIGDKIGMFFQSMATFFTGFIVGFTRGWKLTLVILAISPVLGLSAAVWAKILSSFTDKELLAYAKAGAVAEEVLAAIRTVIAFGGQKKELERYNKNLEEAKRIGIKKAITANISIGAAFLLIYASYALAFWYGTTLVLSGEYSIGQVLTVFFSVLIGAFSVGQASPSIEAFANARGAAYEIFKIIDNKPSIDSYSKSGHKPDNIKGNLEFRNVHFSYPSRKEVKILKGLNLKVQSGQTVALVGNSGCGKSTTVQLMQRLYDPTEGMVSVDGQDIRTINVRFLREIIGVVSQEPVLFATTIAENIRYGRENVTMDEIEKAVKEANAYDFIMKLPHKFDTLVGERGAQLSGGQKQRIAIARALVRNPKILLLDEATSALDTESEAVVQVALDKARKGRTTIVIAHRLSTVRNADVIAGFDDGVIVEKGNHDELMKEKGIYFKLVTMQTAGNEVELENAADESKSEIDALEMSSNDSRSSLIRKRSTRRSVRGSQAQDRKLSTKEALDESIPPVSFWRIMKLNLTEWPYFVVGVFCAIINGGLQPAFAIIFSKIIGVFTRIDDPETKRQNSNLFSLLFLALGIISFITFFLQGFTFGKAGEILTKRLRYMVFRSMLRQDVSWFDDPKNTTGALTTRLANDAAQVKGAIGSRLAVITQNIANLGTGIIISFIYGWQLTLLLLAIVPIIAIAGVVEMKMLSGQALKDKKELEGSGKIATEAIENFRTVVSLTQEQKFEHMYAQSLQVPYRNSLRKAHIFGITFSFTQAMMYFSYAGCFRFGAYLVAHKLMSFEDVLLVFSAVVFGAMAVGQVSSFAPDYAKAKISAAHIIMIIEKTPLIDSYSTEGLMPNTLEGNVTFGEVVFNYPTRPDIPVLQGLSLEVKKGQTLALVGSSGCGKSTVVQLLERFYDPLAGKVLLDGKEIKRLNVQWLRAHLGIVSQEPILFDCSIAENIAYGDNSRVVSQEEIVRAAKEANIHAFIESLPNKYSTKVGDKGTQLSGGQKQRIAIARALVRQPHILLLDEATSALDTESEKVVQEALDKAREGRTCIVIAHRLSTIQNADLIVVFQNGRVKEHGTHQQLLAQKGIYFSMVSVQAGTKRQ

[20] = molecular target: LXRα (Homo sapiens, UniProt Q13133); assay: cell-based biosensor assay; details: read-out: median effective concentration (EC50) for LXRα
Sequence of LXRα (Q13133 whole entry): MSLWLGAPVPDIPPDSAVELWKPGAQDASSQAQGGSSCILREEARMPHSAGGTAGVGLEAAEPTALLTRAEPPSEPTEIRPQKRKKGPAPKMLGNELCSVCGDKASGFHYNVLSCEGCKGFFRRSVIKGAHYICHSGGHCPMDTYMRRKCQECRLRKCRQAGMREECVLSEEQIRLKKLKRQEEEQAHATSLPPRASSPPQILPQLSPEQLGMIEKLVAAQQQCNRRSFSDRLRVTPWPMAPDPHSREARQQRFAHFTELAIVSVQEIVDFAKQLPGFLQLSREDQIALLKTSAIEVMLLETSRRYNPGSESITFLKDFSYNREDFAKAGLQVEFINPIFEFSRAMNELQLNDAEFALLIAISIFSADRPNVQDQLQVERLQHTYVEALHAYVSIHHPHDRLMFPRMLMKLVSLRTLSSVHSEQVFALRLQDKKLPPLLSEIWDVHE

[21] = single agent therapy in subjects, toxicities; assay type: in vivo
[22] = neurobehavioral functional observation battery (FOB) and respiratory evaluations in rats; assay type: in vivo
[23] = test system: CYP1A2; assay: CYP induction in primary cultures of cryopreserved hepatocytes; assay type: in vitro ADME
[24] = molecular target: CYP3A4 (Homo sapiens, UniProt P08684); assay: in vitro CYP metabolism; assay type: in vitro ADME
[25] = molecular target: 2C9 (Homo sapiens, UniProt P11712); assay: in vitro CYP450 inhibition; assay type: in vitro ADME
Sequence of 2C9 (P11712 whole entry): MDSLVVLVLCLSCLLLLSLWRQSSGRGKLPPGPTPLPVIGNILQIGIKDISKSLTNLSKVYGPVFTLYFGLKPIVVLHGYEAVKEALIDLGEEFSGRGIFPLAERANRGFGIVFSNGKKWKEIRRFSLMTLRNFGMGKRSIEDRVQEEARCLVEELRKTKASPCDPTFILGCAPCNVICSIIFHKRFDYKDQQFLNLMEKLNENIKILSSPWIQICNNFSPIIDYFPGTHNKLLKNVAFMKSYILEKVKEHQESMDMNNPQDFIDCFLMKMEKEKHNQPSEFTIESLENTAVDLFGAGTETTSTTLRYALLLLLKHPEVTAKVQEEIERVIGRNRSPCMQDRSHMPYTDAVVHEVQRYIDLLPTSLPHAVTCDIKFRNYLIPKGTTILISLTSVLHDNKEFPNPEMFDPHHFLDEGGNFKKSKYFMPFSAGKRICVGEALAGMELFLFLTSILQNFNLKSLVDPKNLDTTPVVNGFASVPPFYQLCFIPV

[26] = molecular target: LXRβ (Homo sapiens, UniProt P55055); assay: cell-based biosensor assay
Sequence of LXRβ (P55055 whole entry): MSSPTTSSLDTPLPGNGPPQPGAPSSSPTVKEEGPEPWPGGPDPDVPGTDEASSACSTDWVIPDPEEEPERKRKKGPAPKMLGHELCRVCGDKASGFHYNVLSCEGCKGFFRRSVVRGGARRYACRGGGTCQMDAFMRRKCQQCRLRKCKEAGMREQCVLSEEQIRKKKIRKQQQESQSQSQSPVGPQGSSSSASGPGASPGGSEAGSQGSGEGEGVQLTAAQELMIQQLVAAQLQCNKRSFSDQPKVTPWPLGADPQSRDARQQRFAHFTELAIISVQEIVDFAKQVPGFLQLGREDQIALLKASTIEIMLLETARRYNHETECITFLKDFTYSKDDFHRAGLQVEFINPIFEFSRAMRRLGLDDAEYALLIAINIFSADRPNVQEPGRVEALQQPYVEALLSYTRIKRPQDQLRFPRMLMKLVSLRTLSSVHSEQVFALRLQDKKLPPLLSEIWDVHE

[27] = po, depending on dose and formulation, read-out: mean % F

Sequence of CYP2J2 (P51589 whole entry): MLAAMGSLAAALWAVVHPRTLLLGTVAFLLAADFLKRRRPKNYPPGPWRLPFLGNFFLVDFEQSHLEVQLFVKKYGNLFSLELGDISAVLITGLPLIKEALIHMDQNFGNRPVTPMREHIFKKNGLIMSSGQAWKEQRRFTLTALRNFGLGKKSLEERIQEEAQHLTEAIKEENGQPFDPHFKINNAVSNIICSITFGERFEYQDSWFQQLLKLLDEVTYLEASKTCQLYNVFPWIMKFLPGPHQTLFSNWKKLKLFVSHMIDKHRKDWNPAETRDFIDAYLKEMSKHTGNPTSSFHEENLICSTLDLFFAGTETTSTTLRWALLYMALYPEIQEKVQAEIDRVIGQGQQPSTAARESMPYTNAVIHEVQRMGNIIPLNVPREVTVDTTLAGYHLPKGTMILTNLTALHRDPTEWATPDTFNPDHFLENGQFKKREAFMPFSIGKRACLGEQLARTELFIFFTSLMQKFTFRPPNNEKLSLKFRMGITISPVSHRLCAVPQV

C[C@H](CCOc1cccc(CC(=O)O)c1)N(Cc1cccc(C(F)(F)F)c1Cl)CC(c1ccccc1)c1ccccc1 [2-[3-[(3R)-3-[[2-chloro-3-(trifluoromethyl)phenyl]methyl-(2,2-diphenylethyl)amino]butoxy]phenyl]acetic acid]
substrate for CYP2J2 [1]: possibly | liver function [2]: Liver function abnormalities have been observed | compound-related effects on qualitative ECG parameters (PR or QTc intervals or QRS duration) [3]: no | mean heart rate ([3]; Day 1 post-dose interval, significant in females at 150 (stepped down to 100) mg/kg/day, not considered adverse): dose related decrease in mean heart rate | mean tumor volume ([4]; Group 03: 50 mg/kg, 0.9% saline, 0 mg/kg cisplatin, day 0): 86.36 | mean tumor volume ([4]; Group 03: 50 mg/kg, 0.9% saline, 0 mg/kg cisplatin, day 3): 98.82 | mean tumor volume ([4]; Group 03: 50 mg/kg, 0.9% saline, 0 mg/kg cisplatin, day 6): 125.97 | mean tumor volume ([4]; Group 03: 50 mg/kg, 0.9% saline, 0 mg/kg cisplatin, day 9): 232.26 | mean tumor volume ([4]; Group 03: 50 mg/kg, 0.9% saline, 0 mg/kg cisplatin, day 12): 354.70 | mean tumor volume ([4]; Group 03: 50 mg/kg, 0.9% saline, 0 mg/kg cisplatin, day 15): 507.62 | mean tumor volume ([4]; Group 03: 50 mg/kg, 0.9% saline, 0 mg/kg cisplatin, day 19): 1053.57 | mean tumor volume ([4]; Group 03: 50 mg/kg, 0.9% saline, 0 mg/kg cisplatin, day 22): 1151.02 | mean tumor volume ([4]; Group 04: 50 mg/kg twice per day daily + 2 mg/kg cisplatin, day 0, in mm³ (unit assumed)): 86.71 | mean tumor volume ([4]; Group 04: 50 mg/kg twice per day daily + 2 mg/kg cisplatin, day 3): 94.50 | mean tumor volume ([4]; Group 04: 50 mg/kg twice per day daily + 2 mg/kg cisplatin, day 6): 111.80 | mean tumor volume ([4]; Group 04: 50 mg/kg twice per day daily + 2 mg/kg cisplatin, day 9, in mm³ (unit assumed)): 214.76 | mean tumor volume ([4]; Group 04: 50 mg/kg twice per day daily + 2 mg/kg cisplatin, day 12, in mm³ (unit assumed)): 315.64 | mean tumor volume ([4]; Group 04: 50 mg/kg twice per day daily + 2 mg/kg cisplatin, day 15, in mm³ (unit assumed)): 315.55 | mean tumor volume ([4]; Group 04: 50 mg/kg twice per day daily + 2 mg/kg cisplatin, day 19): 748.19 | mean tumor volume ([4]; Group 04: 50 mg/kg twice per day daily + 2 mg/kg cisplatin, day 22): 875.67 | mean tumor volume ([4]; Group 05: 50 mg/kg twice per day five days then two days without + 2 mg/kg cisplatin, day 0, in mm³ (unit assumed)): 86.32 | mean tumor volume ([4]; Group 05: 50 mg/kg twice per day five days then two days without + 2 mg/kg cisplatin, day 3): 97.27 | mean tumor volume ([4]; Group 05: 50 mg/kg twice per day five days then two days without + 2 mg/kg cisplatin, day 6): 129.15 | mean tumor volume ([4]; Group 05: 50 mg/kg twice per day five days then two days without + 2 mg/kg cisplatin, day 9, in mm³ (unit assumed)): 212.99 | mean tumor volume ([4]; Group 05: 50 mg/kg twice per day five days then two days without + 2 mg/kg cisplatin, day 12, in mm³ (unit assumed)): 334.58 | mean tumor volume ([4]; Group 05: 50 mg/kg twice per day five days then two days without + 2 mg/kg cisplatin, day 15, in mm³ (unit assumed)): 345.20 | mean tumor volume ([4]; Group 05: 50 mg/kg twice per day five days then two days without + 2 mg/kg cisplatin, day 19): 680.16 | mean tumor volume ([4]; Group 05: 50 mg/kg twice per day five days then two days without + 2 mg/kg cisplatin, day 22): 830.27 | anti-tumor activity ([5]; animal models of glioblastoma, triple negative breast cancer (TNBC) and lung cancer): demonstrated | inhibition of primary tumor growth ([5]; extent varied with model): 48-95% | inhibition of endothelial recruitment [6]: ~50% | inhibition of 2C19 [7]: very weakly inhibited | inhibition of 2D6 [8]: very weakly inhibited | inhibition at 50 µM [9]: < 50% | Tmax ([10]; oral dose): 4 to 8 h | bioavailability [10, 27]: 18 to 30% | half-life ([10]; po, read-out: mean apparent oral t½): 5 to 6.7 h | inhibition at 50 µM [11]: < 50% | inhibition of 2A6 [12]: very weakly inhibited | inhibition of metastatic spread of cancer cells [13]: ~9 fold | half-life ([14]; Sprague-Dawley, rat, plasma, po, female rats, read-out: mean apparent oral t½ (converted)): 6.5 h | clearance, female versus male rats ([14]; all dose levels, higher systemic exposure in females): cleared at a lower rate in female rats compared to males | Tmax ([14]; both sexes, rat, plasma, po, Sprague-Dawley rats, males and females): 4 to 8 h | bioavailability ([14]; rat, plasma, Sprague-Dawley rats, 30 mg/kg oral dose, read-out: combined, mean % F): ~31% | Tmax ([15]; oral dose): 4 h | bioavailability [15, 27]: 6 to 19% | half-life ([15]; po, read-out: mean oral t½): 5.5 to 8 h | tumor growth ([16]; 50 mg/kg in combination with anti-PD1 therapy, tumors otherwise resistant to PD-1 inhibition): significant suppression of tumor growth | inhibition of tumor growth ([16]; combination with anti-CTLA-4 antibody relative to either therapy alone): superior | tumor growth inhibition ([16]; in combination with an anti-PD-1 antibody, model otherwise not responsive to anti-PD-1 antibody): > 80% | anti-tumor efficacy ([16]; in combination with dacarbazine, compared to either treatment alone): > 80% | inhibition at 50 µM [17]: < 50% | half-life ([18]; CD-1, mouse, plasma, po, mice, read-out: mean apparent oral half-life (t½)): 6.5 to 8 h | Tmax ([18]; both sexes, mouse, plasma, po, CD-1 mice, males and females, read-out: time to maximum plasma concentration (Tmax)): 2 to 8 h | food effect: plasma concentrations higher in the fed state ([18]; mice, fed state): > 2 fold | bioavailability ([18]; mouse, plasma, CD-1 mice, oral, read-out: absolute oral bioavailability (% F)): > 100% | inhibition of P-gp [19]: does not inhibit | EC50 [20]: 336 nM | dose-limiting toxicity (DLT) ([21]; single agent therapy): DLT of Grade 4 neutropenia | hyperlipidemia in treated subjects ([21]; subjects treated): hyperlipidemia has been observed | neurobehavioral FOB or respiratory evaluations [22]: no adverse effects were noted | induction of CYP1A2 [23]: did not induce | metabolism by CYP3A4 [24]: metabolized predominantly | inhibition of 2C9 [25]: very weakly inhibited | specificity for LXRβ than LXRα ([26]; from EC50 values): approximately 2.9 fold | EC50 ([26]; read-out: median effective concentration (EC50) for LXRβ): 118 nM

Source: patent US20220331274A1, “METHODS OF TREATING CANCER” (Inspirna, Inc., priority 2019, published 2022)
